Non-standard residues stand in square brackets, D forms with d. Residues, ends and D or L forms follow the SMILES beside them. tBuAla = CC(C)(C)C[C@H](N)C(=O)O; Chg = N[C@H](C(=O)O)C1CCCCC1; Ac6c = NC1(C(=O)O)CCCCC1; Orn = NCCC[C@H](N)C(=O)O; Dab = NCC[C@H](N)C(=O)O; Nva = CCC[C@H](N)C(=O)O; Abu = CC[C@H](N)C(=O)O; Dap = NC[C@H](N)C(=O)O; Ahp = NCCCCCCC(=O)O
biological target: T1, recombinant human vWF-A1 domain (Homo sapiens, UniProt P07359); experiment: Static human platelet adhesion to recombinant human vWF-A1 domain; assay type: cell-based; conditions: washed calcein AM labeled human platelets, static conditions, 1.5 h adhesion; read-out: Activity (IC50 for inhibition of the binding of platelets to vWF A1 domain)
T1 construct: whole blood drawn from voluntary donors; made in house; host or cells: E. coli (vWF-A1); washed platelets from human donor blood (GPIb, endogenous)
T1 sequence (P07359 17-652): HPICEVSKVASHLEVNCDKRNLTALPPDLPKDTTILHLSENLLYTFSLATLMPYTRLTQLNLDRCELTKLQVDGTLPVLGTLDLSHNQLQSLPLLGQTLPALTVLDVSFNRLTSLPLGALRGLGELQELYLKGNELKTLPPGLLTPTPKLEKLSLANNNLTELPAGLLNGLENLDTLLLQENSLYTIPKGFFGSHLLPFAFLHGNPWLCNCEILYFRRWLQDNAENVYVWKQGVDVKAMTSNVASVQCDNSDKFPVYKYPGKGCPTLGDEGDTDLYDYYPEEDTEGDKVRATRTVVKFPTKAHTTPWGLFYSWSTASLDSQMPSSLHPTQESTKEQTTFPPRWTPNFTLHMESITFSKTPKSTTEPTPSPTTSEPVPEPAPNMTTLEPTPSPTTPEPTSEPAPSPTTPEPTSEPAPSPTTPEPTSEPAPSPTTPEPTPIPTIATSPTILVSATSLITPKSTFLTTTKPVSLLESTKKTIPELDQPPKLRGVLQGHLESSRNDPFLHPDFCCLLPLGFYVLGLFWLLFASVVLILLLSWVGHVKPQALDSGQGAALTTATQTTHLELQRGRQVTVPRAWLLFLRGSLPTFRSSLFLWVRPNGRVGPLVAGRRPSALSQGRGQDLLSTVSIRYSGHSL
T1 sequence (P13224 26-206 partner): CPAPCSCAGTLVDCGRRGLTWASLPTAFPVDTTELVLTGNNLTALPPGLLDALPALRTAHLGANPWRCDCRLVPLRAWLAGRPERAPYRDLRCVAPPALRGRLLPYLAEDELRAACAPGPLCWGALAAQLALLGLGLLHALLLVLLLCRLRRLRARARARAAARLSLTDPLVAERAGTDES
T1 sequence (P14770 17-177 partner): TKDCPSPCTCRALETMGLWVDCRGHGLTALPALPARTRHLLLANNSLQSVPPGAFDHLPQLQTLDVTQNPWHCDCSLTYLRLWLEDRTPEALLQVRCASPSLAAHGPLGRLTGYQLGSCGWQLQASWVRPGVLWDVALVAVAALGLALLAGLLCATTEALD
Method: The activity of compounds of the formula I can be shown by procedures known in the art, for example by determining their inhibition of the binding of platelets to vWF A1 domain in an appropriate assay. To this end, assay plates can be coated with vWF-A1 domain. […] Then fluorescence-labeled thrombocytes are added and incubated for 90 minutes. In a complex washing procedure all non-bound thrombocytes are removed and the plates are measured, for example in a laser-based reader Acumen Explorer or a bulk reader like Spectramax. […] To assess the effect of compounds on the interaction of the GPIb complex on platelets with vWF, an assay system was used measuring binding of human platelets to recombinant human vWF-A1 domain under static conditions in the presence and absence of the compounds. […] Platelet rich plasma was carefully removed, transferred to a fresh container and spun down for 15 min at 120 g. Platelet rich plasma was carefully transferred again to fresh containers, PGE1 (0.5 μg/ml, Sigma) was added and the suspension was allowed to rest for 5 min. This was followed by another centrifugation step for 15 min at 360 g. The supernatant was discarded and the cell pellets were carefully resuspended in tyrode buffer (NaCl, 137 mM (Sigma S-3014); KCl, 2.7 mM (Sigma P-9541); NaHCO3,12 mM ([…] 31437); NaH2PO4×2H2O, 0.36 mM (Merck 6345); […] After 5 min of resting the suspension was spun down for 15 min at 300 g. The supernatant was discarded and the pellets were carefully resuspended in TBS buffer (Tris-HCl, 50 mM (Fluka 93371); NaCl, 120 mM (Sigma S-3014); KCl, 2.7 mM (Sigma P-9541); CaCl2, 0.05 mM (Sigma C-3306); MgCl2×6 H2O, 2 mM (Sigma M-2670); […] The platelet count was adjusted to 2×10^5 cells/μl, and the suspensions from individual donors were pooled at this stage. The platelets were allowed to rest for 30 min at room temperature before calcein AM (2.5 μM per 2×10^5 cells/μl (Molecular Probes C-3099)) was added. This was followed by 15 min incubation in the dark. Cells were diluted to 5×10^4 cells/μl and ReoPro (3 μg/ml (Centocor B. V., Leiden, N L)) was added, followed by a 10 min incubation period in the dark before adding the platelets to the assay plates. 96 well plates (Greiner hb, black, clear bottom, F, 655097) were coated with human recombinant vWF-A1 domain (1.5 μg/well, AA 475-706, expressed in E. coli) in Tris buffer (pH 7.4; Tris-HCl, 25 mM; NaCl, 150 mM) and incubated for 1 h at room temperature. After washing the wells 3× with TBS, blocking buffer (TBS with 5% BSA) was added followed by an incubation for 1 h. The wells were washed again 3× with TBS before 200 μl TBS were added to each well, preventing them from drying out. TBS was flicked out and serial dilutions of the test compound were added. The washed and calcein AM labeled thrombocytes were added to the wells (2.5×10^6 cells/well). Following an adhesion period of 1.5 h in the dark the wells were washed 3× with TBS. Measurement of fluorescence per well was performed in a SpectraMax M5 reader (Molecular Devices). From the raw data % inhibition and IC50 values were calculated.

Row | IC50 | SMILES
1 | < 1000 nM | CSCC[C@@H]1NC(=O)[C@H](CCCNC(=N)N)NC(=O)[C@H](CCC(=O)O)NC(=O)[C@H](CC(N)=O)NC(=O)CCCCCCNC(=O)[C@H](CC(C)C)NC(=O)[C@H](CC(N)=O)NC(=O)[C@H](Cc2c[nH]cn2)NC(=O)[C@H](CC(C)C)NC(=O)[C@H](C)NC1=O [Example 22, Cyclo[Leu-His-Asn-Leu-NH—(CH2)6—CO-Asn-Glu-Arg-Met-Ala]] (cyclo(ALHNL[Ahp]NERM))
2 | < 1000 nM | CSCC[C@@H]1NC(=O)[C@H](CCCNC(=N)N)NC(=O)[C@H](CCC(=O)O)NC(=O)[C@H](CCN)NC(=O)CCCCCCNC(=O)[C@H](CC(C)C)NC(=O)[C@H](CC(N)=O)NC(=O)[C@H](Cc2c[nH]cn2)NC(=O)[C@H](CC(C)C)NC(=O)[C@H](C)NC1=O [Example 24, Cyclo[Leu-His-Asn-Leu-NH—(CH2)6—CO-Dbu-Glu-Arg-Met-Ala]] (cyclo(ALHNL[Ahp][Dab]ERM))
3 | < 1000 nM | CSCC[C@@H]1NC(=O)[C@H](CCCNC(=N)N)NC(=O)[C@H](CCC(=O)O)NC(=O)[C@H](CCC(N)=O)NC(=O)CCCCCCNC(=O)[C@H](CC(C)C)NC(=O)[C@H](CC(N)=O)NC(=O)[C@H](Cc2c[nH]cn2)NC(=O)[C@H](CC(C)C)NC(=O)[C@H](C)NC1=O [Example 25, Cyclo[Leu-His-Asn-Leu-NH—(CH2)6—CO-Gln-Glu-Arg-Met-Ala]] (cyclo(ALHNL[Ahp]QERM))
4 | < 1000 nM | CSCC[C@@H]1NC(=O)[C@H](CCCN)NC(=O)[C@H](CCC(=O)O)NC(=O)[C@H]([C@@H](C)O)NC(=O)CCCCCCNC(=O)[C@H](CC(C)C)NC(=O)[C@H](CC(N)=O)NC(=O)[C@H](Cc2c[nH]cn2)NC(=O)[C@H](CC(C)C)NC(=O)[C@H](C)NC1=O [Example 28, Cyclo[Leu-His-Asn-Leu-NH—(CH2)6—CO-Thr-Glu-Orn-Met-Ala]] (cyclo(ALHNL[Ahp]TE[Orn]M))
5 | 1000 to 10000 nM | CSCC[C@@H]1NC(=O)[C@H](CN)NC(=O)[C@H](CCC(=O)O)NC(=O)[C@H]([C@@H](C)O)NC(=O)CCCCCCNC(=O)[C@H](CC(C)C)NC(=O)[C@H](CC(N)=O)NC(=O)[C@H](Cc2c[nH]cn2)NC(=O)[C@H](CC(C)C)NC(=O)[C@H](C)NC1=O [Example 29, Cyclo[Leu-His-Asn-Leu-NH—(CH2)6—CO-Thr-Glu-Dpr-Met-Ala]] (cyclo(ALHNL[Ahp]TE[Dap]M))
6 | 1000 to 10000 nM | CSCC[C@@H]1NC(=O)[C@H](CCCNC(=N)N)NC(=O)[C@H](CCC(=O)O)NC(=O)[C@H]([C@@H](C)O)NC(=O)CCCCCCNC(=O)[C@H](CC(C)C)NC(=O)[C@H](CC(N)=O)NC(=O)[C@H](Cc2c[nH]cn2)NC(=O)[C@H](CC(C)C)NC(=O)[C@H](CCCNC(=N)N)NC1=O [Example 30, Cyclo[Leu-His-Asn-Leu-NH—(CH2)6—CO-Thr-Glu-Arg-Met-Arg]] (cyclo([Ahp]TERMRLHNL))
7 | 1000 to 10000 nM | CCC[C@@H]1NC(=O)[C@H](CCSC)NC(=O)[C@H](CCCNC(=N)N)NC(=O)[C@H](CCC(=O)O)NC(=O)[C@H]([C@@H](C)O)NC(=O)CCCCCCNC(=O)[C@H](CC(C)C)NC(=O)[C@H](CC(N)=O)NC(=O)[C@H](Cc2c[nH]cn2)NC(=O)[C@H](CC(C)C)NC1=O [Example 31, Cyclo[Leu-His-Asn-Leu-NH—(CH2)6—CO-Thr-Glu-Arg-Met-Nva]] (cyclo([Ahp]TERM[Nva]LHNL))
8 | < 1000 nM | CSCC[C@@H]1NC(=O)[C@H](CCCNC(=N)N)NC(=O)[C@H](CCC(=O)O)NC(=O)[C@H]([C@@H](C)O)NC(=O)CCCCCCNC(=O)[C@H](CC(C)C)NC(=O)[C@H](CC(N)=O)NC(=O)[C@H](Cc2c[nH]cn2)NC(=O)[C@H](CC(C)C)NC(=O)[C@H](CN)NC1=O [Example 32, Cyclo[Leu-His-Asn-Leu-NH—(CH2)6—CO-Thr-Glu-Arg-Met-Dpr]] (cyclo([Ahp]TERM[Dap]LHNL))
9 | 1000 to 10000 nM | CSCC[C@@H]1NC(=O)[C@H](CCCNC(=N)N)NC(=O)[C@H](CCC(=O)O)NC(=O)[C@H]([C@@H](C)O)NC(=O)CCCCCCNC(=O)[C@H](CC(C)C)NC(=O)[C@H](CC(N)=O)NC(=O)[C@@H](Cc2c[nH]cn2)NC(=O)[C@H](CC(C)C)NC(=O)[C@H](C)NC1=O [Example 33, Cyclo[Leu-D-His-Asn-Leu-NH—(CH2)6—CO-Thr-Glu-Arg-Met-Ala]] (cyclo(AL[dH]NL[Ahp]TERM))
10 | 1000 to 10000 nM | CSCC[C@@H]1NC(=O)[C@H](CCCNC(=N)N)NC(=O)[C@H](CCC(=O)O)NC(=O)[C@H]([C@@H](C)O)NC(=O)CCCCCCNC(=O)[C@H](CC(C)C)NC(=O)[C@H](CC(N)=O)NC(=O)[C@H](CCCN)NC(=O)[C@H](CC(C)C)NC(=O)[C@H](C)NC1=O [Example 34, Cyclo[Leu-Orn-Asn-Leu-NH—(CH2)6—CO-Thr-Glu-Arg-Met-Ala]] (cyclo(AL[Orn]NL[Ahp]TERM))
11 | < 1000 nM | CSCC[C@@H]1NC(=O)[C@H](CCCNC(=N)N)NC(=O)[C@H](CCC(=O)O)NC(=O)[C@H]([C@@H](C)O)NC(=O)CCCCCCNC(=O)[C@H](CC(C)C)NC(=O)[C@H](CC(N)=O)NC(=O)[C@H](Cc2c[nH]cn2)NC(=O)[C@H](CC(C)(C)C)NC(=O)[C@H](C)NC1=O [Example 36, Cyclo[Npg-His-Asn-Leu-NH—(CH2)6—CO-Thr-Glu-Arg-Met-Ala]] (cyclo(A[tBuAla]HNL[Ahp]TERM))
12 | 1000 to 10000 nM | CSCC[C@@H]1NC(=O)[C@H](CCCNC(=N)N)NC(=O)[C@H](CCC(=O)O)NC(=O)[C@H]([C@@H](C)O)NC(=O)CCCCCCNC(=O)[C@H](CC(C)C)NC(=O)[C@H](CC(N)=O)NC(=O)[C@H](Cc2c[nH]cn2)NC(=O)C2(CCCCC2)NC(=O)[C@H](C)NC1=O [Example 37, Cyclo[Ac6-His-Asn-Leu-NH—(CH2)6—CO-Thr-Glu-Arg-Met-Ala]] (cyclo(A[Ac6c]HNL[Ahp]TERM))
13 | < 1000 nM | CC(C)C[C@@H]1NC(=O)[C@H](C)NC(=O)[C@H](CC(C)C)NC(=O)[C@H](CCCNC(=N)N)NC(=O)[C@H](CCC(=O)O)NC(=O)[C@H]([C@@H](C)O)NC(=O)CCCCCCNC(=O)[C@H](CC(C)C)NC(=O)[C@H](CC(N)=O)NC(=O)[C@H](Cc2c[nH]cn2)NC1=O [Example 38, Cyclo[Leu-His-Asn-Leu-NH—(CH2)6—CO-Thr-Glu-Arg-Leu-Ala]] (cyclo(ALHNL[Ahp]TERL))
14 | 1000 to 10000 nM | CC(C)C[C@@H]1NC(=O)[C@H](C)NC(=O)[C@H](C2CCCCC2)NC(=O)[C@H](CCCNC(=N)N)NC(=O)[C@H](CCC(=O)O)NC(=O)[C@H]([C@@H](C)O)NC(=O)CCCCCCNC(=O)[C@H](CC(C)C)NC(=O)[C@H](CC(N)=O)NC(=O)[C@H](Cc2c[nH]cn2)NC1=O [Example 39, Cyclo[Leu-His-Asn-Leu-NH—(CH2)6—CO-Thr-Glu-Arg-Chg-Ala]] (cyclo(ALHNL[Ahp]TER[Chg]))
15 | < 1000 nM | CC(C)C[C@@H]1NC(=O)[C@H](C)NC(=O)[C@H](C)NC(=O)[C@H](CCCNC(=N)N)NC(=O)[C@H](CCC(=O)O)NC(=O)[C@H]([C@@H](C)O)NC(=O)CCCCCCNC(=O)[C@H](CC(C)C)NC(=O)[C@H](CC(N)=O)NC(=O)[C@H](Cc2c[nH]cn2)NC1=O [Example 40, Cyclo[Leu-His-Asn-Leu-NH—(CH2)6—CO-Thr-Glu-Arg-Ala-Ala]] (cyclo(AALHNL[Ahp]TER))
16 | < 1000 nM | CC(C)C[C@@H]1NC(=O)[C@H](C)NC(=O)[C@H](CCC(N)=O)NC(=O)[C@H](CCCNC(=N)N)NC(=O)[C@H](CCC(=O)O)NC(=O)[C@H]([C@@H](C)O)NC(=O)CCCCCCNC(=O)[C@H](CC(C)C)NC(=O)[C@H](CC(N)=O)NC(=O)[C@H](Cc2c[nH]cn2)NC1=O [Example 41, Cyclo[Leu-His-Asn-Leu-NH—(CH2)6—CO-Thr-Glu-Arg-Gln-Ala]] (cyclo(ALHNL[Ahp]TERQ))
17 | < 1000 nM | CC[C@@H]1NC(=O)[C@H](CCCNC(=N)N)NC(=O)[C@H](CCC(=O)O)NC(=O)[C@H]([C@@H](C)O)NC(=O)CCCCCCNC(=O)[C@H](CC(C)C)NC(=O)[C@H](CC(N)=O)NC(=O)[C@H](Cc2c[nH]cn2)NC(=O)[C@H](CC(C)C)NC(=O)[C@H](C)NC1=O [Example 42, Cyclo[Leu-His-Asn-Leu-NH—(CH2)6—CO-Thr-Glu-Arg-Abu-Ala]] (cyclo(ALHNL[Ahp]TER[Abu]))

From patent publication US9073975B2, “Cyclic peptides, their preparation and their use as inhibitors of the platelet adhesion” (SANOFI, priority 2010, dated 2015)
